pIC50: −log10 of the molar value. Where a name gives a salt, the structure may show the parent alone. Where only a bound is given, the exact number is not on record here.

Data on 32 compounds can be found in US8304419B2, “Chemical compounds” (priority 2007, dated 2012).

One assay deals with HIV wild type (WTRVA). The experiment in a line: HeLa cell assay, wild type virus (WTRVA). The assay is classed as cell-based, HIV-1. Further details: scale not given here. The note with it: Human immunodeficiency virus 1, HeLa, HeLa cell assay; read-out: IC50 against WTRVA.
Regarding `N#Cc1cc(Oc2c(Cl)ccc(CNC(=O)c3[nH]cnc3Cl)c2F)cc(C2CC2)c1` [Example 152, 4-chloro-N-({4-chloro-3-[(3-cyano-5-cyclopropylphenyl)oxy]-2-fluorophenyl}methyl)-1H-imidazole-5-carboxamide], the pIC50 was above 8.00.

With `Cc1nc(Cl)c(C(=O)NCc2ccc(C(F)F)c(Oc3cc(Cl)cc(C#N)c3)c2F)[nH]1` [Example 254, 4-chloro-N-{[3-[(3-chloro-5-cyanophenyl)oxy]-4-(difluoromethyl)-2-fluorophenyl]methyl}-2-methyl-1H-imidazole-5-carboxamide], the pIC50 is above 8.00.

As to `C=CCc1cc(C#N)cc(Oc2c(Cl)ccc(CNC(=O)c3[nH]c(C)nc3Cl)c2F)c1` [Example 248, 4-chloro-N-[(4-chloro-3-{[3-cyano-5-(2-propen-1-yl)phenyl]oxy}-2-fluorophenyl)methyl]-2-methyl-1H-imidazole-5-carboxamide trifluoroacetate], the pIC50 is above 8.00.

As to `N#Cc1cc(Oc2c(Cl)ccc(CNC(=O)c3[nH]cnc3Cl)c2F)cc(C(F)F)c1` [Example 309, 4-chloro-N-[(4-chloro-3-{[3-cyano-5-(difluoromethyl)phenyl]oxy}-2-fluorophenyl)methyl]-1H-imidazole-5-carboxamide], the pIC50 is above 8.00.

For `C=Cc1cc(C#N)cc(Oc2c(Cl)ccc(CNC(=O)c3[nH]cnc3Cl)c2F)c1` [Example 143, 4-chloro-N-({4-chloro-3-[(3-cyano-5-ethenylphenyl)oxy]-2-fluorophenyl}methyl)-1H-imidazole-5-carboxamide], the pIC50 is above 8.00.

Consider `CCc1ccc(CNC(=O)c2[nH]c(N)nc2Cl)c(F)c1Oc1cc(Cl)cc(C#N)c1` [Example 251, 2-amino-4-chloro-N-({3-[(3-chloro-5-cyanophenyl)oxy]-4-ethyl-2-fluorophenyl}methyl)-1H-imidazole-5-carboxamide], for which the pIC50 was above 8.00.

As for `N#Cc1cc(Oc2c(Cl)ccc(CNC(=O)c3[nH]c(N)nc3Cl)c2F)cc(C2CC2)c1` [Example 307, 2-amino-4-chloro-N-({4-chloro-3-[(3-cyano-5-cyclopropylphenyl)oxy]-2-fluorophenyl}methyl)-1H-imidazole-5-carboxamide trifluoroacetate], the pIC50 is above 8.00.

In the case of `C=CCc1cc(C#N)cc(Oc2c(Cl)ccc(Cn3cnc4nc[nH]c4c3=O)c2F)c1` [Example 373, 3-({6-chloro-2-fluoro-3-[(6-oxo-6,7-dihydro-1H-purin-1-yl)methyl]phenyl}oxy)-5-(2-propen-1-yl)benzonitrile], the pIC50 was above 8.00.

Staying with this assay, now noted: Human immunodeficiency virus 1, HeLa, HeLa-CD4-LTR-β-gal cells, wild type virus; read-out: WTRVA activity level.
`Cc1c(C(=O)NCc2ccc(Cl)c(Oc3cc(Cl)cc(C#N)c3)c2F)[nH]c2ccc(Cl)cc12` [Example 40, 5-chloro-N-({4-chloro-3-[(3-chloro-5-cyanophenyl)oxy]-2-fluorophenyl}methyl)-3-methyl-1H-indole-2-carboxamide]: the pIC50 is 6.00 to 8.00.

`N#Cc1cc(Cl)cc(Oc2c(Cl)ccc(CNC(=O)c3cn(C(c4ccccc4)(c4ccccc4)c4ccccc4)cn3)c2F)c1` [Example 83, N-({4-chloro-3-[(3-chloro-5-cyanophenyl)oxy]-2-fluorophenyl}methyl)-1-(triphenylmethyl)-1H-imidazole-4-carboxamide]: the pIC50 is below 6.00.

`N#Cc1cc(Cl)cc(Oc2c(Cl)ccc(CNC(=O)c3cc4cc(N)ccc4[nH]3)c2F)c1` [Example 111, 5-amino-N-({4-chloro-3-[(3-chloro-5-cyanophenyl)oxy]-2-fluorophenyl}methyl)-1H-indole-2-carboxamide trifluoroacetate]: the pIC50 was above 8.00.

On to `N#Cc1cc(Cl)cc(Oc2c(Cl)ccc(CNC(=O)c3cc4cc(NC(=O)CCN)ccc4[nH]3)c2F)c1` [Example 116, 5-(β-alanylamino)-N-({4-chloro-3-[(3-chloro-5-cyanophenyl)oxy]-2-fluorophenyl}methyl)-1H-indole-2-carboxamide], for which the pIC50 was above 8.00.

`COc1cc2cc(C(=O)NCc3ccc(Cl)c(Oc4cc(Cl)cc(C#N)c4)c3F)[nH]c2cn1` [Example 46, N-({4-chloro-3-[(3-chloro-5-cyanophenyl)oxy]-2-fluorophenyl}methyl)-5-(methyloxy)-1H-pyrrolo[2,3-c]pyridine-2-carboxamide trifluoroacetate]: the pIC50 is above 8.00.

For `CNCC(=O)Nc1ccc2[nH]c(C(=O)NCc3ccc(Cl)c(Oc4cc(Cl)cc(C#N)c4)c3F)cc2c1` [Example 119], the pIC50 is above 8.00.

As to `N#Cc1cc(Cl)cc(Oc2cc(CNC(=O)c3ccc(S(N)(=O)=O)cc3Cl)ccc2Cl)c1` [Example 4, 4-(aminosulfonyl)-2-chloro-N-({4-chloro-3-[(3-chloro-5-cyanophenyl)oxy]phenyl}methyl)benzamide trifluoroacetate], the pIC50 is 6.00 to 8.00.

Regarding `N#Cc1cc(Cl)cc(Oc2c(Cl)ccc(CNC(=O)c3csnn3)c2F)c1` [Example 90, N-({4-chloro-3-[(3-chloro-5-cyanophenyl)oxy]-2-fluorophenyl}methyl)-1,2,3-thiadiazole-4-carboxamide], the pIC50 is above 8.00.

For the compound `COc1ccc(C(=O)NCc2ccc(Cl)c(Oc3cc(Cl)cc(C#N)c3)c2)c(OC)c1` [Example 6, N-({4-chloro-3-[(3-chloro-5-cyanophenyl)oxy]phenyl}methyl)-2,4-bis(methyloxy)benzamide], the pIC50 is 6.00 to 8.00.

As to `N#Cc1cc(Cl)cc(Oc2c(Cl)ccc(CNC(=O)c3cc4ccccc4o3)c2F)c1` [Example 47, N-({4-chloro-3-[(3-chloro-5-cyanophenyl)oxy]-2-fluorophenyl}methyl)-1-benzofuran-2-carboxamide trifluoroacetate], the pIC50 was 6.00 to 8.00.

`CS(=O)(=O)c1ccc(C(=O)NCc2ccc(Cl)c(Oc3cc(Cl)cc(C#N)c3)c2F)cc1` [Example 92, N-({4-chloro-3-[(3-chloro-5-cyanophenyl)oxy]-2-fluorophenyl}methyl)-4-(methylsulfonyl)benzamide]: the pIC50 was 6.00 to 8.00.

With `N#Cc1cc(Cl)cc(Oc2c(Cl)ccc(CNC(=O)c3[nH]c4cc(Cl)ccc4c3Cl)c2F)c1` [Example 55, 3,6-dichloro-N-({4-chloro-3-[(3-chloro-5-cyanophenyl)oxy]-2-fluorophenyl}methyl)-1H-indole-2-carboxamide trifluoroacetate], the pIC50 is 6.00 to 8.00.

Regarding `N#Cc1cc(Cl)cc(Oc2c(Cl)ccc(CNC(=O)c3cc4cc(NC(=O)[C@@H]5CCCN5)ccc4[nH]3)c2F)c1` [Example 118, N-({4-chloro-3-[(3-chloro-5-cyanophenyl)oxy]-2-fluorophenyl}methyl)-5-(L-prolylamino)-1H-indole-2-carboxamide trifluoroacetate], the pIC50 is above 8.00.

For the compound `CC(=O)Nc1ccc2[nH]c(C(=O)NCc3ccc(Cl)c(Oc4cc(Cl)cc(C#N)c4)c3F)nc2c1` [Example 125, 5-(acetylamino)-N-({4-chloro-3-[(3-chloro-5-cyanophenyl)oxy]-2-fluorophenyl}methyl)-1H-benzimidazole-2-carboxamide], the pIC50 is above 8.00.

Consider `Cc1nc(Br)c(C(=O)NCc2ccc(Cl)c(Oc3cc(Cl)cc(C#N)c3)c2F)[nH]1` [Example 134, 4-bromo-N-({4-chloro-3-[(3-chloro-5-cyanophenyl)oxy]-2-fluorophenyl}methyl)-2-methyl-1H-imidazole-5-carboxamide], for which the pIC50 was above 8.00.

Consider `N#Cc1cc(Cl)cc(Oc2c(Cl)ccc(CNC(=O)c3cc4cc([N+](=O)[O-])ccc4o3)c2F)c1` [Example 50, N-({4-chloro-3-[(3-chloro-5-cyanophenyl)oxy]-2-fluorophenyl}methyl)-5-nitro-1-benzofuran-2-carboxamide trifluoroacetate], for which the pIC50 was 6.00 to 8.00.

Take `N#Cc1cc(Cl)cc(Oc2c(Cl)ccc(CNC(=O)c3ccncc3)c2F)c1` [Example 89, N-({4-chloro-3-[(3-chloro-5-cyanophenyl)oxy]-2-fluorophenyl}methyl)-4-pyridinecarboxamide trifluoroacetate]: the pIC50 is 6.00 to 8.00.

For the compound `N#Cc1cc(Cl)cc(Oc2c(Cl)ccc(CNC(=O)c3[nH]c4cc(O)ccc4c3Br)c2F)c1` [Example 61, 3-bromo-N-({4-chloro-3-[(3-chloro-5-cyanophenyl)oxy]-2-fluorophenyl}methyl)-6-hydroxy-1H-indole-2-carboxamide trifluoroacetate], the pIC50 was above 8.00.

Take `COc1ccc2c(C(=O)NCc3ccc(Cl)c(Oc4cc(Cl)cc(C#N)c4)c3)c[nH]c2c1` [Example 3, N-({4-chloro-3-[(3-chloro-5-cyanophenyl)oxy]phenyl}methyl)-6-(methyloxy)-1H-indole-3-carboxamide]: the pIC50 was below 6.00.

For the compound `N#Cc1cc(Cl)cc(Oc2cc(CNC(=O)c3ccc(Cl)c(S(N)(=O)=O)c3)ccc2Cl)c1` [Example 5, 3-(aminosulfonyl)-4-chloro-N-({4-chloro-3-[(3-chloro-5-cyanophenyl)oxy]phenyl}methyl)benzamide trifluoroacetate], the pIC50 was 6.00 to 8.00.

Take `Cc1nc2ccccn2c1C(=O)NCc1ccc(Cl)c(Oc2cc(Cl)cc(C#N)c2)c1F` [Example 97, N-({4-chloro-3-[(3-chloro-5-cyanophenyl)oxy]-2-fluorophenyl}methyl)-2-methylimidazo[1,2-a]pyridine-3-carboxamide trifluoroacetate]: the pIC50 is above 8.00.

Consider `Cc1[nH]c(C(=O)NCc2ccc(Cl)c(Oc3cc(Cl)cc(C#N)c3)c2F)c(C)c1C#N` [Example 71, N-({4-chloro-3-[(3-chloro-5-cyanophenyl)oxy]-2-fluorophenyl}methyl)-4-cyano-3,5-dimethyl-1H-pyrrole-2-carboxamide trifluoroacetate], for which the pIC50 was above 8.00.

Turning to `N#Cc1cc(Cl)cc(Oc2c(Cl)ccc(CNC(=O)c3[nH]c4ccccc4c3Cl)c2F)c1` [Example 75, 3-chloro-N-({4-chloro-3-[(3-chloro-5-cyanophenyl)oxy]-2-fluorophenyl}methyl)-1H-indole-2-carboxamide trifluoroacetate], the pIC50 is above 8.00.

Consider `N#Cc1cc(Cl)cc(Oc2c(Cl)ccc(CNC(=O)c3cc4cc([N+](=O)[O-])ccc4[nH]3)c2F)c1` [Example 19, N-({4-chloro-3-[(3-chloro-5-cyanophenyl)oxy]-2-fluorophenyl}methyl)-5-nitro-1H-indole-2-carboxamide], for which the pIC50 was above 8.00.
